For nine compounds, TGI and GI50 results are on record in PubChem BioAssay (NCI).

Several values for one entry are separate records, joined by “and”; a condition that tells them apart may be missing. Identical values can stand only once.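 Tested at 5 concentrations; 48 h exposure; 96-well plates; endpoints linearly interpolated, else capped at highest concentration. Abbreviation: GI50, concentration required for 50% inhibition of growth. The concentration for full growth arrest is given as TGI.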 Bounds are passed on as bounds.

What all share (test): growth of human tumour cells (NCI), 48 h
The subject of experiment [1] is PC-3 prostate.
Experiment [2] has as its system HOP-62 NSCLC.
The subject of experiment [3] is KM12 colon.
Experiment [4] has as its system HL-60(TB) leukemia.
For experiment [5], the system named is SK-OV-3 ovarian.
Experiment [6] deals with NCI-H226 lung.
For experiment [7], the system named is ACHN renal.
Experiment [8] deals with SF-268 CNS.
Experiment [9] deals with HCT-15 colon.
Experiment [10] concerns OVCAR-4 ovarian.

For `Oc1ccc2ccccc2c1N=Nc1cccc2ccccc12`, the TGI in experiment [1], in experiment [2], in [3], in [4], in [5] and in experiment [6] was more than 100 µM throughout. The TGI in experiment [7], in experiment [8], in experiment [9] and in experiment [10] was more than 100 µM throughout.

For `Cc1cn(C2CC(OC(=O)c3ccc(Cl)cc3)C(COC(=O)c3ccc(Cl)cc3)O2)c(=O)[nH]c1=O` (stereo not drawn), the TGI in experiment [1], in experiment [2], in [3], in [4], in experiment [5] and in [6] was more than 100 µM each time. In addition, the TGI in experiment [7], in experiment [8], in experiment [9] and in experiment [10] was more than 100 µM in each case.

Regarding `COc1ccc2c(c1)C(=O)/C(=C/c1cccc(OCC(=O)c3ccccc3)c1)O2`, the GI50 was 4.44 µM in [1]; 14.5 µM in experiment [2]; 4.23 µM in experiment [3]; 1.39 µM in [4]; 15.8 µM in experiment [5]; 15.9 µM in experiment [6]. Besides, the GI50 in experiment [7] is 1.79 µM; in experiment [8], 4.25 µM; in [9] it was 2.42 µM; in [10] it was 2.72 µM. Besides, the TGI in experiment [1] worked out at 17.4 µM; in experiment [2] it was 28.5 µM; in experiment [3], 16.1 µM; in experiment [4] it was 3.23 µM; in experiment [5] it was 29.2 µM; in [6] it was 43.5 µM. The TGI in [7] was determined as 3.38 µM; in [8] it was 16.6 µM; in experiment [9], 6.83 µM; in experiment [10], 6.37 µM.

`CCCOC(=O)N[C@H]1CCc2c(Cl)c(OC)c(OC)c(OC)c2-c2ccc(SC)c(=O)cc21`: the GI50 is less than 0.01 µM in [1]; 0.0101 µM in [2]; less than 0.01 µM in [3]; less than 0.01 µM in [4]; less than 0.01 µM in experiment [6]; less than 0.01 µM in experiment [7]. Further, the GI50 in [8] is less than 0.0117 µM; in experiment [9] it was less than 0.01 µM; in experiment [10] it was less than 0.012 µM. Moreover, the TGI in [1] is more than 100 µM; in experiment [2] it was 50.9 µM; in experiment [3] it was 1.63 µM; in [4], less than 0.01 µM; in experiment [6] it was 12.5 µM; in experiment [7], 23.6 µM. For the same compound, the TGI in experiment [8] is 17.4 µM; in experiment [9], 16.6 µM; in experiment [10], more than 100 µM.

With `Cc1nnc(-c2ccc(C)c(-c3ccc(C(=O)Nc4cccc(C#N)c4)cc3)c2)o1`, the GI50 is more than 25 µM in [1]; more than 25 µM in experiment [2]; more than 25 µM in experiment [3]; more than 25 µM in experiment [4]; more than 25 µM in experiment [5]; more than 10.9 µM in experiment [6]. Further, the GI50 in [7] is more than 25 µM; in experiment [8], more than 25 µM; in experiment [9], more than 25 µM; in [10], 17.7 µM. Besides, the TGI in experiment [1], in [2], in experiment [3], in experiment [4], in experiment [5] and in experiment [6] was more than 25 µM each time. Besides, the TGI in experiment [7], in [8], in [9] and in experiment [10] was more than 25 µM in each case.

With `O=C1C(=O)c2ccccc2C(O)=C1C(C1=C(O)c2ccccc2C(=O)C1=O)c1ccc(Cl)cc1`, the TGI was 57.7 µM in experiment [1]; 13.1 µM in experiment [2]; 25 µM in experiment [3]; 4.83 µM in experiment [4]; 33.5 µM in experiment [5]; 52.9 µM in [6]. The TGI in [7] is 17 µM; in experiment [8] it was 59.8 µM; in [9], 32 µM; in experiment [10] it was 18.6 µM.

For the compound `CCOc1cccc(/C=N/NC(=O)c2cccc(Nc3ccnc(C(F)(F)F)c3)c2)c1O`, the GI50 in experiment [1] is 3.28 µM; in experiment [2], 0.682 µM; in experiment [3], 1.48 µM; in experiment [4] it was 0.262 µM; in experiment [5] it was 0.796 µM; in [6], 0.827 µM. The GI50 in experiment [7] is 0.699 µM; in experiment [8], 0.873 µM; in experiment [9], 1.1 µM; in experiment [10], 0.723 µM. The TGI in [1] is more than 92.8 µM; in [2], 15.3 µM; in experiment [3], 17.6 µM; in experiment [4], 1.01 µM; in experiment [5], 33.1 µM; in [6] it was 9.82 µM. For the same compound, the TGI is more than 50.3 µM in [7], more than 45.3 µM in experiment [8], more than 100 µM in [9] and 48.6 µM in [10].

Turning to `CCN(CC)CCCC(CCl)Nc1ccnc2cc(Cl)ccc12` (stereo not drawn), the GI50 is 27.2 µM and 34.9 µM in [1]; 25.7 µM and 28.7 µM in experiment [2]; 16.7 µM and 16.2 µM in experiment [3]; 15.5 µM and 7.99 µM in [4]; more than 100 µM in experiment [5]; 34.7 µM and 3.99 µM in experiment [6]. Besides, the GI50 is 36 µM and 6.74 µM in [7]; 17.1 µM and 21.6 µM in experiment [8]; 24.9 µM and 23.9 µM in [9]; 35.8 µM and 30.9 µM in [10]. In addition, the TGI in experiment [1] was more than 100 µM; in experiment [2] it was 71.8 µM and > 100 µM; in experiment [3] it was 34 µM and 50.6 µM; in experiment [4], 72.8 µM and > 31.6 µM; in experiment [5] it was more than 100 µM; in [6], 85.2 µM and > 39.1 µM. Further, the TGI in [7] is more than 100 µM; in experiment [8] it was 49.8 µM and 97 µM; in experiment [9] it was more than 100 µM; in [10], more than 100 µM.

Regarding `Cc1cn(-c2cc(NC(=O)c3cccc(C#Cc4cccc5[nH]nc(N)c45)c3)cc(C(F)(F)F)c2)cn1`, the GI50 in experiment [1] was 6.46 µM; in experiment [2], 3.99 µM; in experiment [3], 1.29 µM; in [4], 3.22 µM; in [5] it was 22.2 µM; in [6], 0.771 µM. The GI50 in [7] is 3.86 µM; in experiment [8], 4.81 µM; in experiment [9], 4.49 µM; in [10] it was 2.93 µM. Moreover, the TGI in [1] was 26.7 µM; in experiment [2], 18.3 µM; in experiment [3] it was more than 100 µM; in experiment [4], 32.6 µM; in experiment [5], more than 100 µM; in experiment [6], 61.2 µM. For the same compound, the TGI is 16 µM in experiment [7], more than 100 µM in [8], more than 100 µM in experiment [9] and 21.2 µM in [10].
